From patent US9988635B2, “Modulation of growth hormone receptor expression and insulin-like growth factor expression” (Antisense Therapeutics Limited, priority 2003, dated 2018)
In the oligonucleotide strings, read from the 5' end, every base follows the letter of its sugar. An asterisk marks phosphorothioate; unmarked linkages are phosphodiester. Other units and linkages are bracketed, terminal groups are in braces. A string of capitals states the bases alone. e = 2'-O-(2-methoxyethyl) (MOE); [5mC] = 5-methylcytosine; d = 2'-deoxy (DNA)

tested on: human growth hormone receptor mRNA; assay: Inhibition of human growth hormone receptor mRNA levels in MCF7 cells, quantitative real-time PCR; assay type: cell-based; set-up: concentration or dose not given beside the values; settings: averages from three experiments
Method: (§1) The human breast carcinoma cell line MCF-7 was obtained from the American Type Culture Collection (Manassas, Va.). MCF-7 cells were routinely cultured in DMEM low glucose (Gibco/Life Technologies, Gaithersburg, Md.) supplemented with 10% fetal calf serum (Gibco/Life Technologies, Gaithersburg, Md.). Cells were routinely passaged by trypsinization and dilution when they reached 90% confluence. Cells were seeded into 96-well plates (Falcon-Primaria #3872) at a density of 7000 cells/well for use in RT-PCR analysis.
(§2) When cells reached 65-75% confluency, they were treated with oligonucleotide. For cells grown in 96-well plates, wells were washed once with 100 μL OPTI-MEM™-1 reduced-serum medium (Invitrogen Corporation, Carlsbad, Calif.) and then treated with 130 μL of OPTI-MEM™-1 containing 3.75 μg/mL LIPOFECTIN™ (Invitrogen Corporation, Carlsbad, Calif.) and the desired concentration of oligonucleotide. Cells are treated and data are obtained in triplicate. After 4-7 hours of treatment at 37° C., the medium was replaced with fresh medium. Cells were harvested 16-24 hours after oligonucleotide treatment.
(§3) Total RNA was isolated using an RNEASY 96™ kit and buffers purchased from Qiagen Inc. (Valencia, Calif.) following the manufacturer's recommended procedures. Briefly, for cells grown on 96-well plates, growth medium was removed from the cells and each well was washed with 200 μL cold PBS. 150 μL Buffer RLT was added to each well and the plate vigorously agitated for 20 seconds. 150 μL of 70% ethanol was then added to each well and the contents mixed by pipetting three times up and down. The samples were then transferred to the RNEASY 96™ well plate attached to a QIAVAC™ manifold fitted with a waste collection tray and attached to a vacuum source. Vacuum was applied for 1 minute. 500 μL of Buffer RW1 was added to each well of the RNEASY 96™ plate and incubated for 15 minutes and the vacuum was again applied for 1 minute. An additional 500 μL of Buffer RW1 was added to each well of the RNEASY 96™ plate and the vacuum was applied for 2 minutes. 1 mL of Buffer RPE was then added to each well of the RNEASY 96™ plate and the vacuum applied for a period of 90 seconds. The Buffer RPE wash was then repeated and the vacuum was applied for an additional 3 minutes. The plate was then removed from the QIAVAC™ manifold and blotted dry on paper towels. The plate was then re-attached to the QIAVAC™ manifold fitted with a collection tube rack containing 1.2 mL collection tubes. RNA was then eluted by pipetting 140 μL of RNAse free water into each well, incubating 1 minute, and then applying the vacuum for 3 minutes.
(§4) Quantitation of growth hormone receptor mRNA levels was accomplished by real-time quantitative PCR using the ABI PRISM™ 7600, 7700, or 7900 Sequence Detection System (PE-Applied Biosystems, Foster City, Calif.) according to manufacturer's instructions. This is a closed-tube, non-gel-based, fluorescence detection system which allows high-throughput quantitation of polymerase chain reaction (PCR) products in real-time. As opposed to standard PCR in which amplification products are quantitated after the PCR is completed, products in real-time quantitative PCR are quantitated as they accumulate. This is accomplished by including in the PCR reaction an oligonucleotide probe that anneals specifically between the forward and reverse PCR primers, and contains two fluorescent dyes. A reporter dye (e.g., FAM or JOE, obtained from either PE-Applied Biosystems, Foster City, Calif., Operon Technologies Inc., Alameda, Calif. or Integrated DNA Technologies Inc., Coralville, Iowa) is attached to the 5′ end of the probe and a quencher dye (e.g., TAMRA, obtained from either PE-Applied Biosystems, Foster City, Calif., Operon Technologies Inc., Alameda, Calif. or Integrated DNA Technologies Inc., Coralville, Iowa) is attached to the 3′ end of the probe. When the probe and dyes are intact, reporter dye emission is quenched by the proximity of the 3′ quencher dye. […]

Row | Substance | % INHIB of human growth hormone receptor mRNA levels [%]
1 | 227475 (antisense e[5mC]*e[5mC]*eT*eG*e[5mC]*dT*dG*dG*dT*dG*dT*dA*dA*dT*dG*eT*e[5mC]*eG*e[5mC]*eT) [compound 227475] | 68
2 | 272320 (antisense eA*eG*eA*eT*eT*dG*dT*dG*dT*dT*d[5mC]*dA*d[5mC]*d[5mC]*dT*e[5mC]*e[5mC]*eT*e[5mC]*eT) [compound 272320] | 70
3 | 272351 (antisense eA*eT*eA*eG*eA*dA*dA*dT*dG*dT*dT*dG*dT*d[5mC]*dA*eG*eG*e[5mC]*eT*eG) [compound 272351] | 57
4 | 272354 (antisense eA*eG*eT*eT*eA*dT*dG*dT*dG*dA*d[5mC]*d[5mC]*d[5mC]*dT*dG*eA*eT*eT*eG*eA) [compound 272354] | 65
5 | 272357 (antisense eT*eA*eG*eG*eG*dT*d[5mC]*d[5mC]*dA*dT*d[5mC]*dT*dT*dT*d[5mC]*eA*eA*eG*eA*e[5mC]) [compound 272357] | 62

tested on: mouse growth hormone receptor mRNA; assay: Inhibition of mouse growth hormone receptor mRNA levels in b.END cells, quantitative real-time PCR, incl. dose-response; assay type: cell-based; settings: averages from three experiments
Method: as §1, with “mouse brain endothelial” for “human breast carcinoma”, “b.END” for “MCF-7”, “from Dr. Werner Risau at” for “from”, “Max Plank Instititute (Bad Nauheim, Germany). b.END” for “American Type Culture Collection (Manassas, Va.). MCF-7”, “DMEM, high” for “DMEM low”, “3000” for “7000”
as §2, §3
as §4, with “probe.” for “probe. When the probe and dyes are intact, reporter dye emission is quenched by the proximity of the 3′ quencher dye.”

Row | Substance | % INHIB of mouse growth hormone receptor mRNA levels [%]
6 | 227512 (antisense eT*eA*eA*e[5mC]*e[5mC]*dT*dA*dT*dG*dG*dT*dG*dA*d[5mC]*dT*eA*eT*eG*eT*e[5mC]) [compound 227512] | 36
7 | 227455 (antisense eA*eG*eT*eA*eG*dG*dG*dT*dA*dT*d[5mC]*d[5mC]*dA*dA*dA*eT*eG*eG*eA*eG) [compound 227455] | 43
8 | 227478 (antisense eT*eT*eT*eT*eT*dG*dG*d[5mC]*dA*dT*d[5mC]*dT*dG*dA*d[5mC]*eT*e[5mC]*eA*e[5mC]*eA) [compound 227478] | 68
9 | 227514 (antisense eA*eT*eG*e[5mC]*eT*d[5mC]*dA*d[5mC]*dG*dT*d[5mC]*dA*dG*d[5mC]*dT*eA*eT*eT*eG*eG) [compound 227514] | 43
10 | 227513 (antisense eT*eA*e[5mC]*e[5mC]*eT*dG*dA*dG*dA*d[5mC]*d[5mC]*dT*dG*d[5mC]*dA*eA*eG*eA*e[5mC]*eA) [compound 227513] | 40
11 | 227458 (antisense eG*eT*eA*e[5mC]*eT*dG*dA*dA*dT*dT*dT*d[5mC]*dA*dT*dA*e[5mC]*eT*e[5mC]*e[5mC]*eA) [compound 227458] | 75
12 | 227510 (antisense e[5mC]*eT*e[5mC]*e[5mC]*eA*dG*dA*d[5mC]*dG*dT*dG*dA*d[5mC]*d[5mC]*d[5mC]*eG*eA*e[5mC]*eT*e[5mC]) [compound 227510] | 64
13 | 227491 (antisense eT*eA*eG*eG*eA*dA*dA*dG*dG*d[5mC]*dT*dA*d[5mC]*dT*dG*e[5mC]*eA*eT*eG*eA) [compound 227491] | 65
14 | 227448 (antisense eT*eT*eT*eG*e[5mC]*d[5mC]*dA*dA*dG*dA*dG*dT*dA*dG*d[5mC]*eT*eG*eG*eT*eG) [compound 227448] | 60
15 | 227516 (antisense eT*eT*eG*eG*e[5mC]*dT*dT*dT*d[5mC]*d[5mC]*d[5mC]*dT*dG*dG*dA*eG*eG*eT*eT*e[5mC]) [compound 227516] | 57
16 | 227449 (antisense eA*e[5mC]*eG*eA*e[5mC]*dA*d[5mC]*dT*dT*dG*dG*dT*dG*dA*dA*eT*e[5mC]*eG*eA*eG) [compound 227449] | 69
17 | 227451 (antisense eA*eT*eG*eA*eG*d[5mC]*dA*dA*dT*dT*d[5mC]*dT*dT*dG*d[5mC]*eA*eG*e[5mC]*eT*eT) [compound 227451] | 49
18 | 227519 (antisense eT*e[5mC]*eA*e[5mC]*eA*d[5mC]*d[5mC]*dT*dA*d[5mC]*d[5mC]*dT*dT*dT*dG*e[5mC]*eT*eG*e[5mC]*eT) [compound 227519] | 44
